Measured values published in the NIST ThermoML archive (doi:10.1016/j.jct.2016.09.041).

Test: molar heat capacity at constant pressure
Details: 101.33 kPa, Crystal 1, Small (less than 1 g) adiabatic calorimetry

N[C@@H](Cc1c[nH]c2ccccc12)C(=O)O [L-tryptophan]
Details	molar heat capacity at constant pressure [J/K/mol]
124.29 K	103.18
125.09 K	103.85
125.89 K	104.51
126.7 K	105.01
127.5 K	105.51
128.3 K	106.18
129.1 K	106.67
129.91 K	107.26
130 K	107.26
130.71 K	107.84
131.51 K	108.34
132.31 K	108.75
133.12 K	109.25
133.92 K	109.67
134.72 K	110.5
135.52 K	111.08
136.33 K	111.66
137.13 K	112.16
137.93 K	112.74
138.74 K	113.33
139.54 K	113.83
140 K	114.16
140.34 K	114.32
141.14 K	114.74
141.95 K	115.49
142.75 K	116.07
143.55 K	116.57
144.35 K	117.23
145.16 K	117.65
145.96 K	118.31
146.76 K	118.73
147.56 K	119.31
148.37 K	119.81
149.17 K	120.64
149.97 K	121.14
150 K	121.06
150.77 K	121.56
151.57 K	122.22
152.38 K	122.97
153.18 K	123.22
153.98 K	123.64
154.78 K	124.55
155.58 K	124.8
156.38 K	125.55
157.18 K	126.13
157.98 K	126.46
158.79 K	127.46
159.59 K	127.96
160 K	128.04
160.39 K	128.13
161.19 K	128.96
161.99 K	129.62
162.79 K	130.2
163.59 K	130.79
164.39 K	131.29
165.19 K	131.7
166 K	131.95
166.8 K	132.7
167.6 K	133.45
168.39 K	134.03
169.19 K	134.61
169.99 K	135.19
170 K	135.03
170.79 K	135.61
171.59 K	136.19
172.39 K	136.52
173.19 K	137.11
173.99 K	137.6
174.79 K	138.1
175.59 K	138.77
176.39 K	139.18
177.19 K	140.1
177.99 K	140.51
178.79 K	141.01
179.59 K	141.6
180 K	141.93
180.38 K	142.09
181.18 K	142.68
181.97 K	143.34
182.76 K	143.84
183.57 K	144.59
184.36 K	144.92
185.16 K	145.59
185.96 K	146.17
186.75 K	146.67
187.55 K	147.25
188.34 K	147.67
189.14 K	148.5
189.93 K	149.16
190 K	148.91
190.73 K	149.58
191.53 K	149.91
192.32 K	150.49
193.12 K	151.07
193.9 K	151.91
194.7 K	152.4
195.49 K	152.82
196.29 K	153.24
197.08 K	153.82
197.87 K	154.4
198.67 K	155.23
199.46 K	155.65
200 K	156.06
200.26 K	156.31
201.25 K	156.89
202.45 K	157.81
203.66 K	158.64
204.86 K	159.55
206.06 K	160.3
207.27 K	161.3
208.48 K	162.22
209.68 K	162.96
210 K	163.21
210.89 K	163.88
212.09 K	164.54
213.3 K	165.54
214.51 K	166.21
215.73 K	166.95
216.93 K	167.95
218.14 K	169.28
219.36 K	170.2
220 K	170.28
220.57 K	170.86
221.79 K	171.61
223 K	172.77
224.22 K	173.69
225.43 K	174.11
